Assay results as given in US20250019350A1, “SYNTHESIS OF THE PROSTATE SPECIFIC MEMBRANE ANTIGEN (PSMA) RADIOLABELED INHIBITOR [18F]DCFPYL” (Progenics Pharmaceuticals, Inc, priority 2023, published 2025).

Assay: Retention/recovery of [19F]DCFPyL on the HLB solvent exchange cartridge as a function of pH (load, wash, product samples)
Format: physicochemical
Protocol: The goal of this study was to characterize the impact of pH on the retention of [^18F]DCFPyL on the HLB solvent exchange cartridge. […] The pH of one solution was adjusted to 2 and a second to 4 by adding 1N HCl. A third solution was used without adjusting its native pH of 7.2. Using a BD syringe, 10 mL of each solution was spiked with [^19F]DCFPyL (50 μg) by adding 0.5 mL of a 100 μg/mL stock solution. Each spiked solution was loaded onto a HLB cartridge at a rate of approximately 2 mL/min. […] The eluent from each HLB cartridge was individually collected and identified as the “wash solution.” Each HLB cartridge was then individually eluted with 1 mL of ethanol, the samples collected and are identified as the “product sample.” The load solution and wash solution samples were analyzed using a drug product chemical impurity assay after a 1 to 10 mL dilution with saline, while the ethanolic product samples were analyzed following a 0.5 to 10 dilution with saline.
The goal of this study was to characterize the impact of pH on the retention of ^18F-DCFPyL on the HLB solvent exchange cartridge. […] The pH of one solution was adjusted to 2 and a second to 4 by adding 1N HCl. A third solution was used without adjusting its native pH of 7.2. At this pH the solution will be mainly sodium ascorbate. Using a BD syringe, 10 mL of each solution was spiked with ^19F-DCFPyL (50 μg) by adding 0.5 mL of a 100 μg/mL stock solution. Each spiked solution was loaded onto an HLB cartridge at a rate of approximately 2 mL/min and the solution collected after the HLB column is identified as the load solution. […] Each HLB cartridge was then individually eluted with 1 mL of ethanol, the solution collected after the HLB column is identified as the product sample. The load solution and wash solution samples were analyzed using the drug product chemical impurity assay after a 1 to 10 mL dilution with saline, while the ethanolic product samples were analyzed following a 0.5 to 10 mL dilution with saline.

## O=C(O)CC[C@H](NC(=O)N[C@@H](CCCCNC(=O)c1ccc([18F])nc1)C(=O)O)C(=O)O [Lot 18F-DCFPyL, 2-(3-{1-carboxy-5-[(6-[18F]fluoro-pyridine-3-carbonyl)-amino]-pentyl}ureido)-pentanedioic acid]
pH 2
  retention of [18F]-DCFPyL by the HLB cartridge: 98%
pH 4
  retention of [18F]-DCFPyL by the HLB cartridge: 81%
